Assay results: patent US8859496B2, “Pharmaceutical composition using connective-tissue growth factor” (Postech Academy-Industry Foundation, priority 2010, dated 2014)

What was measured:
HUVECs [1] = test: HUVEC tube formation on Matrigel; format: cell-based, human; conditions: compared to Luciferase siRNA control
Protocol: Meanwhile, to analyze tube formation, HUVECs were inoculated on the previously polymerized Matrigel (BD Biosciences) layer together with a certain amount of linker polypeptide, rhCTGF or VEGF-A165. After culturing for 18 hours, the shape of the cells was observed by phase-contrast microscopy, and photographed with 40× magnification. By measuring the length of tubes 5 times in LPF (low-power fields) randomly selected from each well using image-Pro Plus v4.5 (Media Cybernetics, Silver Spring, Md.), the degree of tube formation was quantified.
(§1) First, 20 ng/ml of VEGF-A was administered to HUVECs, the degree of cell proliferation, cell migration, or tube formation was confirmed by the <Experiment method 9>, and the results are shown in FIGS. 22 to 24. At this time, FPRL1 antagonist WRW4 was additionally added.

human FPRL1 = test: siRNA inhibition of FPRL1 expression in HUVECs (RT-PCR); format: cell-based; conditions: siRNA 20 nM
Protocol: To inhibit transcription of human FPRL1 using siRNA, siRA to FPRL1 (sense: UUCACAUCGUGGUGGACAUdTdT (SEQ ID NO. 3), anti-sense: AUGUCCACCACGAUGUGAAdTdT (SEQ ID NO. 4)) was used. As result of BLAST search of the siRNA sequence, it was confirmed that there is no significant similarity to other sequences in the database. […] HUVECs were used for siRNA transfection. The cells were transfected to the final concentration of 20 nM with FPRL1 siRNA (SEQ ID NO. 3 and SEQ ID NO. 4) or transfected with luciferase siRNA (SEQ ID NO. 11 and SEQ ID NO. 12) as control. At this time, a lipofectamine reagent (Invitrogen Life Technologies) was used according to the manufacturer's instruction. The cells were washed with serum-free medium, and cultured with the transfection mixture to which medium containing 20% (v/v) FBS was added for 4.5 hours. 24 hours and 48 hours after culturing, the cells were collected, and the degree of FPRL1 expression was confirmed by RT-PCR analysis.
All RNAs were separated from the transfected HUVECs according to the manufacturer's instruction using commercially available TRI reagent (Molecular Research Center). First-strand cDNA was synthesized according to the manufacturer's instruction using 3 ug of each DNA-free total RNA sample and oligo(dT)15 and Moloney murine leukemia virus reverse transcriptase (Promega, Wis., USA). […]

HUVECs [2] = test: HUVEC wound migration assay; format: cell-based, human; conditions: compared to Luciferase siRNA control
Protocol: Specifically, HUVECs inoculated on a 60-mm culture dish to confluence were wounded with the end of a pipette, and treated with linker polypeptide (10^−1˜10^2 nM) or recombinant CTGF (recombinant human CTGF, rhCTGF; BioVendor R&D, NC, USA) (10^1 or 10^2 nM) in Medium 199 to which 1% serum and 1 mM thymidine were added. After culturing 16 hours, the number of cells that migrated over a reference line was counted to quantify the degree of migration, and the cells were photographed with 50× magnification.
as §1

FPRL1 = molecular target: T1, FPRL1 (Homo sapiens, UniProt P25090); test: ERK phosphorylation in FPRL1/RBL cells (immunoblot); format: cell-based; conditions: vector/RBL, FPR/RBL or FPRL1/RBL cells; conditioned medium or VEGF-A 10 ng/ml 8 hours; WKYMVm 10 nM
T1 construct: expressed in transfected cells; host or cells: rat basophil leukemia RBL-2H3 cells, kept under G418
T1 sequence (P25090 1-351): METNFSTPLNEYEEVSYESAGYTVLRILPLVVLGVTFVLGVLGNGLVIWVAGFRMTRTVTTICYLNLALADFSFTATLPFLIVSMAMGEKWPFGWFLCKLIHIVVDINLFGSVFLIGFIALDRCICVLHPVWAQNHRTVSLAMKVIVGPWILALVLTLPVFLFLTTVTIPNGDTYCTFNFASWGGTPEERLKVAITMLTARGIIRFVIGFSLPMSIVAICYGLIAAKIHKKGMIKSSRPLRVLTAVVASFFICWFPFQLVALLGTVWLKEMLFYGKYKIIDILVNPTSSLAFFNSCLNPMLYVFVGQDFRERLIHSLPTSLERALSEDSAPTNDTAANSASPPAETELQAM
Protocol: Vector/RBL cells, FPR/RBL cells, FPRL1/RBL cells, and HUVECs were cultured to confluence, and serum-starved. The stimulated cells (1×10^5 cells) were washed with PBS twice, dissolved in 1 ml of sample buffer (50 mM Tris-HCl, 100 mM NaCl, 0.1% SDS, 1% Nonidet P-40, 50 mM NaF, 1 mM Na3VO4, 1 μg/ml aprotinin, 1 μg/ml pepstatin, and 1 μg/ml leupeptin), heated at 95° C. for 30 seconds, separated with SDS-PAGE, and then, transferred to a nitrocellulose film. Immunoblot was conducted using anti-phospho-ERK (extracellular signal regulated kinase)1/2 (Thr^202/Tyr^204)(Cell Signaling Technology, Beverly, Mass., USA), anti-ERK1/2 (Cell Signaling Technology, Beverly, Mass., USA), anti-CTGF (Abcam, Cambridge, Mass., USA), anti-Actin (Sigma, St. Louis, Mo., USA), or anti-Flag (Sigma, St. Louis, Mo., USA) antibody, and then, the film was visualized with a chemiluminescence substrate (Amersham Pharmacia).
To confirm this, the inventors obtained conditioned medium (CM) in HUVEC treated with VEGF-A, and FPRL1-overexpressing cells FPRL1/RBL were treated therewith in the concentration of 10 ng/ml or 50 ng/ml for 8 hours. At this time, as positive control, FPRL1 agonistic peptide WKYMVm (Trp-Lys-Tyr-Met-Val-D-Met, SEQ ID NO. 1) was treated with 10 nM.
After the treatment, immunoblot was conducted on cell lysate that was transferred to a nitrocellulose film with anti-phospho ERK (extracellular signal regulated kinase)1/2 and anti-ERK1/2 antibody (Cell Signaling Technology, Beverly, Mass., USA), and then, the film was visualized with a chemiluminescence substrate (Amersham Pharmacia), and the results are shown in FIG. 1.
Meanwhile, the above described vector/RBL, FPR/RBL, or FPRL1/RBL cells were respectively treated with the above conditioned medium or VEGF-A at the concentration of 10 ng/ml for 8 hours, and positive control was treated with 10 nM of agonistic peptide WKYMVm (SEQ ID NO. 1).
As described in the <Experiment method 5>, FPRL1/RBL cells were treated with 40 ug of the HPLC fraction of the conditioned medium for 5 minutes, and the result confirming whether ERK phosphorylation occurred as described in the <Experiment result 1> was shown in FIG. 3.
To confirm whether the purified proteins induce ERK phosphorylation in FPRL1/RBL cells, immunoblot was conducted as described in the <Experiment result 1>, and the results are shown in FIG. 9.
ERK phosphorylation induction of CTGF linker polypeptide was compared to recombinant human CTGF (rhCTGF). Specifically, FPRL1/RBL cells were treated with CTGF linker polypeptide and rhCTGF for 5 minutes at various concentrations, ERK phosphorylation was measured, and the results are shown in FIG. 11. […]

Row | Substance | effect of siRNA on HUVEC tube formation induced by VEGF-A (HUVECs [1]) | FPRL1 expression after siRNA (human FPRL1) | effect of siRNA on HUVEC cell migration induced by VEGF-A (HUVECs [2]) | ERK phosphorylation, specificity for FPRL1 (FPRL1)
1 | FPRL1 siRNA: sense: UUCACAUCGUGGUGGACAUdTdT (SEQ ID NO. 3), anti-sense: AUGUCCACCACGAUGUGAAdTdT (SEQ ID NO. 4) (dTdT overhangs, chemistry not fully specified) | cell migration or tube formation induced by VEGF-A is inhibited | FPRL1 expression is inhibited | cell migration or tube formation induced by VEGF-A is inhibited | 
2 | Luciferase siRNA: control siRNA, sense: CGUACGCGGAAUACUUCGAdTdT (SEQ ID NO. 11), anti-sense: UCGAAGUAUUCCGCGUACGdTdT (SEQ ID NO. 12) (dTdT overhangs, chemistry not fully specified) |  | FPRL1 expression is not inhibited |  | 
3 | Trp-Lys-Tyr-Met-Val-D-Met [WKYMVm] |  |  |  | induce ERK phosphorylation only in FPRL1-overexpressing FPRL1/RBL cells
